Measurements published in patent US20200371122A1, “BIOMARKER FOR SENESCENT CELLS” (Buck Institute for Research on Aging, priority 2017, published 2020).

What was measured:
IMR-90 fibroblasts = test: Induction of senescence in non-senescent cells by prostaglandins or 5-LOX pathway products (EdU, SA-B-gal, p21, immunoblot); format: cell-based, human
Description: RNA was extracted from cells or tissues using commercially available kits (Isolate II—Bioline for cells; Direct-zol—Zymo for tissues) according to the manufacturer's instructions. cDNA synthesis was performed using a High Capacity cDNA Reverse Transcription Kit (Thermo Fisher) according to the manufacturer's instructions. Quantitative PCR was performed on a LightCycler 480 II (Roche) using primers and probes designed for the Universal Probe Library. Primers and probes used for human transcripts were ACTB: 5′-CCAACCGCGAGAAGATGA (SEQ ID NO:1), 5′-TCCATCACGATGCCAGTG (SEQ ID NO:2), Probe #64; TUBA: 5′-cttcgtctccgccatcag (SEQ ID NO:3), 5′-ttgccaatctggacacca (SEQ ID NO:4), Probe #58; ALOX5: 5′-[…] (SEQ ID NO:5), 5′-[…] (SEQ ID NO:6), Probe #64; ALOX5AP: 5′-ggtctgcggggctacttt (SEQ ID NO:7), 5′-[…] (SEQ ID NO:8), Probe #18; ALOX12: 5′-[…] (SEQ ID NO:9), 5′-agccaggtcgtcaggag (SEQ ID NO:10), Probe #32; ALOX15: 5′-[…] (SEQ ID NO:11), 5′-[…] (SEQ ID NO:12), Probe #76; ALOX15B: 5′-[…] (SEQ ID NO:13), 5′-actgggaggcgaagaagg (SEQ ID NO:14), Probe #51; AKR1C1: 5′-catgcctgtcctgggattt (SEQ ID NO:15), 5′-[…] (SEQ ID NO:16), Probe #49; AKR1C2: 5′-ctatgcgcctgcagaggt (SEQ ID NO:17), 5′-[…] (SEQ ID NO:18), Probe #31; AKR1C3: 5′-[…] (SEQ ID NO:19), 5′-[…] (SEQ ID NO:20), Probe #78; CYSLTR2: 5′-[…] (SEQ ID NO:21), 5′-[…] (SEQ ID NO:22), Probe #18; DPEP1: 5′-gacgtcctgaggctggtg (SEQ ID NO:23), 5′-[…] (SEQ ID NO:24), Probe #9 (SEQ ID NO:25), ELOVL2: 5′-[…] (SEQ ID NO:26), 5′-[…] (SEQ ID NO:27), Probe #53; ELOVL4: 5′-catttggcccatggattc (SEQ ID NO:28), 5′-[…] (SEQ ID NO:29), Probe #31; ELOVL5: 5′-cccttccatgcgtccata (SEQ ID NO:30), 5′-[…] (SEQ ID NO:31), Probe #31; EPHX2: 5′-ttctgctggacaccctgaa (SEQ ID NO:32), 5′-[…] (SEQ ID NO:33), Probe #45; GPX4: 5′-ttcccgtgtaaccagttcg (SEQ ID NO:34), 5′-[…] (SEQ ID NO:35), Probe #36; LTA4H: 5′-ctgctctcacggtccagtc (SEQ ID NO:36), 5′-[…] (SEQ ID NO:37), Probe #64; LTBR2: 5′-[…] (SEQ ID NO:38), 5′-[…] (SEQ ID NO:39), Probe #33; LTC4S: 5′-[…] (SEQ ID NO:40), 5′-[…] (SEQ ID NO:41), Probe #18; PTGDS: 5′-[…] (SEQ ID NO:42), 5′-[…] (SEQ ID NO:43), Probe #36; PTGES: 5′-agagatgcctgcccacag (SEQ ID NO:44), 5′-tggccaccacgtacatctt (SEQ ID NO:45), Probe #4; PTGES2: 5′-[…] (SEQ ID NO:46), 5′-[…] (SEQ ID NO:47), Probe #49; PTGES3 (SEQ ID NO:48), 5′-[…] (SEQ ID NO:49), 5′-[…] (SEQ ID NO:50), Probe #48; PTGIS: 5′-[…] (SEQ ID NO:51), 5′-[…] (SEQ ID NO:52), Probe #45; PTGR1: 5′-atgatggggcagcaagtg (SEQ ID NO:53), 5′-cccatcagaaatggagtgc (SEQ ID NO:54), Probe #64; PTGS1: 5′-[…] (SEQ ID NO:55), 5′-gtggtggtccatgttcctg (SEQ ID NO:56), Probe #81; PTGS2: 5′-gatccccagggctcaaac (SEQ ID NO:57), 5′-[…] (SEQ ID NO:58), Probe #61; TBXAS1: 5′-[…] (SEQ ID NO:59), 5′-tgcctcccgtgtgaatct (SEQ ID NO:60), Probe #73; AREG: 5′-[…] (SEQ ID NO:61), 5′-[…] (SEQ ID NO:62), Probe #73; CCL2: 5′-AGTCTCTGCCGCCCTTCT (SEQ ID NO:63), 5′-GTGACTGGGGCATTGATTG (SEQ ID NO:64), Probe #40; CCL27: 5′-[…] (SEQ ID NO:65), 5′-gctgggtggcagtaggaat (SEQ ID NO:66), Probe #18; CXCL1: 5′-[…] (SEQ ID NO:67), 5′-[…] (SEQ ID NO:68), Probe #52; HGF: 5′-[…] (SEQ ID NO:69), 5′-[…] (SEQ ID NO:70), Probe #49; ILIA: 5′-[…] (SEQ ID NO:71), 5′-[…] (SEQ ID NO:72), Probe #6; IL1B: 5′-[…] (SEQ ID NO:73), 5′-[…] (SEQ ID NO:74), Probe #78; IL6: 5′-[…] (SEQ ID NO:75), 5′-gaaggcagcaggcaacac (SEQ ID NO:76), Probe #45; IL8: 5′-[…] (SEQ ID NO:77), 5′-atggttccttccggtggt (SEQ ID NO:78), Probe #72; IL10: 5′-[…] (SEQ ID NO:79), 5′-[…] (SEQ ID NO:80), Probe #67; MMP3: 5′-[…] (SEQ ID NO:81), 5′-[…] (SEQ ID NO:82), Probe #36; PDGFA: 5′-[…] (SEQ ID NO:83), 5′-[…] (SEQ ID NO:84), Probe #80; VEGF: 5′-[…] (SEQ ID NO:85), 5′-[…] (SEQ ID NO:86), Probe #50; P21WAF1(CDKN1A): 5′-[…]

[1] = test system: bleomycin-induced fibrosis; conditions: administration; Kida 2016, Genovese 2005; cited from earlier work
[2] = test system: IMR-90 fibroblasts depleted of p53 by shRNA; test: Prostaglandin treatment of p53-depleted (shp53) IMR-90 fibroblasts (Ki67, cleaved caspase 3); format: cell-based, human; conditions: shp53 cells, 3 days
Description: For EdU labeling, cells were cultured with EdU (10 μM) for 24 h, fixed in 4% buffered formalin for 10 min, washed in PBS, and permeabilized in 0.5% Triton X-100 for 30 min. Cells were treated as instructed by the manufacturer Life Technologies Cat #C10337). For immunofluorescence, cells were blocked in 10% normal goat serum for 30 min, washed, and incubated overnight in antibodies to Ki67 (Abcam) or cleaved caspase 3 (Cell Signaling). Cell were then washed, incubated in fluorescent secondary antibodies, and mounted using vectashield mounting medium with DAPI.

IL-6 secretion = test: IL-6 ELISA on non-senescent cells treated with prostaglandins; format: cell-based, human; conditions: 10 μM, 10 days
Description: Human fetal lung fibroblasts (IMR-90) were cultured in Dulbecco's modified eagle medium (DMEM) supplemented with 10% FBS and penicillin/streptomycin. LL 29 (AnHa) cells were obtained from the ATCC and growth to confluence using the ATCC protocol, but were subcultured as described for IMR-90 before initiation of all experiments. Quiescence was induced by replacing culture media with media containing 0.2% FBS. MCF-7 and MDA-MB-231 breast cancer cells were cultured in RPMI supplemented with 10% FBS and penicillin/streptomycin. All cells were cultured at 3% O2, and used between 25 and 40 population doublings. All cells were mycoplasma free.
3×10^4 cells in 12-well plates were treated as indicated in the text, and cultured in 0.5-1 ml serum-free DMEM for 24 hr. CM were collected and clarified at 2,000×g for 10 min. Supernatants were transferred to a tube; cells were trypsinized and counted. CM (2.5 μl) were analyzed by bead-based ELISAs (AlphaLISA, Perkin-Elmer) as instructed by the manufacturer and normalized to cell number.

SMILES: CCCCC[C@H](O)/C=C/[C@H]1C(=O)C[C@H](O)[C@@H]1C/C=C\CCCC(=O)O [PGD2, prostaglandin D2]
- levels of LMNB1 and cellular HMGB1 (IMR-90 fibroblasts; 10 μM, 10 days): reduced levels
- p21 gene expression (IMR-90 fibroblasts; 10 μM, 10 days): induced
- senescence-associated beta-galactosidase (IMR-90 fibroblasts; 10 μM, 10 days): induced
- p21 protein accumulation (IMR-90 fibroblasts; 10 μM, 10 days, immunoblot): induced
- p53 stabilization (IMR-90 fibroblasts; 10 μM, 10 days, immunoblot): stabilized
- p53 phosphorylation or acetylation (IMR-90 fibroblasts; 10 μM, 10 days, western blot): without increasing
- expression of MMP3 and secretion of IL-6 on removal of the prostaglandin (IMR-90 fibroblasts; release after 7 days at 10 μM): reduced
- bleomycin-induced fibrosis [1]: attenuate
- apoptosis (positivity for cleaved caspase 3) [2]: underwent apoptosis
- continued cell division (Ki67 positivity) after loss of p53 [2]: did not allow
- IL-6 secretion (IL-6 secretion): elevated
